Data published in ChEMBL document CHEMBL5247626, “In vitro and in vivo biological evaluation of newly synthesized multi-target 20(R)-panaxadiol derivatives for treating Alzheimer's disease” (Eur J Med Chem, 2022).
The source made the active and inactive calls. No cut-off for these calls is given here.

Experiments:
[1] = target: Amyloid-beta precursor protein (Homo sapiens) (UniProt P05067); test: Disaggregation of amyloid beta (25 to 35) (unknown origin) self aggregation at 15 uM incubated for 24 hrs by transmission electron microscopy analysis
Sequence of Amyloid-beta precursor protein (Homo sapiens) (P05067 whole entry): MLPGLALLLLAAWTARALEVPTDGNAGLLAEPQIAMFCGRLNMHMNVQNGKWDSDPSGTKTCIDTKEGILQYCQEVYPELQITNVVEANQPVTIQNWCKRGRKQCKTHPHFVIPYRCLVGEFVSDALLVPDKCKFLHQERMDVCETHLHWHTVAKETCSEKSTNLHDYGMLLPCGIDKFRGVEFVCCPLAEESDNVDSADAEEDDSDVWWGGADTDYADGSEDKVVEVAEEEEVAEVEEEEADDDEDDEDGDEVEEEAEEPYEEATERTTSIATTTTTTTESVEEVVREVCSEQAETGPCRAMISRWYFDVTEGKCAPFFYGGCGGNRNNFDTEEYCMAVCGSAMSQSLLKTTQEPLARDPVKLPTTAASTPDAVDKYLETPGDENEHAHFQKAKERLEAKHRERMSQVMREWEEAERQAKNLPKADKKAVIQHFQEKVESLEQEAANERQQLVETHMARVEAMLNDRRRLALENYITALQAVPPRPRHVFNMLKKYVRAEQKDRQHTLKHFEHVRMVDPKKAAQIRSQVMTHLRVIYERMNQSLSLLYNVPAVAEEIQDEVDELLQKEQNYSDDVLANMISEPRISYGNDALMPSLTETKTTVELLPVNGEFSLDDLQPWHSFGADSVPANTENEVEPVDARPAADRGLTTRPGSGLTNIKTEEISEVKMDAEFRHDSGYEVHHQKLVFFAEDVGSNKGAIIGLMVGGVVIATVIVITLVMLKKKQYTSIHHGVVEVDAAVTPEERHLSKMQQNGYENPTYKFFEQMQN

[2] = test system: Mus musculus; test: Antialzheimer activity against amyloid beta (25 to 35)-induced brain injury ICR mouse model assessed as attenuation of pathological change in cerebral cortex at 12.5 to 50 mg/kg,po administrated for 21 days by hematoxylin and eosin staining based microscopic analysis; format: functional, organism-based; details: dose 12.5-50 mg/kg, time 21.0 day
[3] = Cytotoxicity against mouse Neuro2a cells assessed as cell viability at 120 uM incubated for 24 hrs by MTT assay; format: toxicity, cell-based; details: Neuro2a (N2a) cells, read-out: Activity
[4] = test system: PC-12; test: Neuroprotective activity against amyloid beta (25 to 35)-induced rat PC12 cells assessed as reduction in amyloid beta (25 to 35)-induced apoptosis rate at 7.5 uM incubated for 15 mins by Annexin V-FITC/PI staining based flow cytometric analysis (reference value: 2.9%); format: functional; parameters: scale not given: the % may be the effect or the level left; details: 0.25 h
[5] = test system: PC-12; test: Neuroprotective activity against amyloid beta (25 to 35)-induced rat PC12 cells assessed as decrease in COX-2 expression level at 7.5 to 30 uM preincubated for 30 mins followed by amyloid beta (25 to 35) addition and measured after 24 hrs by western blot assay; format: functional, cell-based; details: dose 7.5-30 µM, time 24.5 hrs
[6] = Cytotoxicity against human HUVEC cells assessed as cell viability at 120 uM incubated for 24 hrs by MTT assay; format: toxicity, cell-based; details: read-out: Activity
[7] = test system: PC-12; test: Neuroprotective activity against rat PC12 cells assessed as reduction in amyloid beta (25 to 35)-induced cytotoxicity at 2.67 to 91.27 uM incubated for 4 hrs followed by amyloid beta (25 to 35) treatment for 24 hrs by MTT assay relative to control; format: functional; parameters: scale not given: the % may be the effect or the level left; details: dose 2.67-91.27 µM, time 28 hrs
[8] = Tmax in Sprague-Dawley rat at 60 mg/kg,po measured at 0.25 to 24 hrs post administration by LC-MS/MS analysis; format: ADME, organism-based; details: in vivo, time 0.25-24 hrs
[9] = test system: PC-12; test: Cytotoxicity against rat PC12 cells assessed as decrease in cell viability at 120 uM incubated for 24 hrs by MTT assay; format: toxicity, cell-based; details: pc-12, 24 h
[10] = AUC (0-infinity) in Sprague-Dawley rat at 60 mg/kg,po measured at 0.25 to 24 hrs post administration by LC-MS/MS analysis; format: ADME, organism-based; parameters: dose 60 mg/kg, time 0.25-24 hrs, route po; details: in vivo
[11] = test system: Mus musculus; test: Antialzheimer activity against amyloid beta (25 to 35)-induced cognitive deficit ICR mouse model assessed as increase in discrimination index at 25 mg/kg,po observed after 1 hr of administration by novel object recognition test; format: functional, organism-based
[12] = test system: Mus musculus; test: Antialzheimer activity against amyloid beta (25 to 35)-induced cognitive deficit ICR mouse model assessed as increase in discrimination index at 50 mg/kg,po observed after 1 hr of administration by novel object recognition test; format: functional, organism-based
[13] = test system: PC-12; test: Neuroprotective activity against amyloid beta (25 to 35)-induced rat PC12 cells assessed as decrease in p38 expression level at 7.5 to 30 uM preincubated for 30 mins followed by amyloid beta (25 to 35) addition and measured after 24 hrs by western blot assay; format: functional, cell-based; details: dose 7.5-30 µM, time 24.5 hrs
[14] = test system: PC-12; test: Neuroprotective activity against amyloid beta (25 to 35)-induced rat PC12 cells assessed as decrease in JNK phosphorylation level at 7.5 to 30 uM preincubated for 30 mins followed by amyloid beta (25 to 35) addition and measured after 24 hrs by western blot assay; format: functional, cell-based; details: dose 7.5-30 µM, time 24.5 hrs
[15] = test system: PC-12; test: Neuroprotective activity against amyloid beta (25 to 35)-induced rat PC12 cells assessed as decrease in intracellular ROS level at 7.5 uM incubated for 24 hrs by DCFH-DA staining based flow cytometry assay; format: functional, cell-based
[16] = test system: Mus musculus; test: Antialzheimer activity against amyloid beta (25 to 35)-induced cognitive deficit ICR mouse model assessed as increase in discrimination index at 25 mg/kg,po observed after 24 hrs of administration by novel object recognition test; format: functional, organism-based
[17] = test system: HepG2; test: Cytotoxicity against human HepG2 cells assessed as effect on survival at < 60 uM incubated for 24 hrs by MTT assay; format: toxicity, cell-based; details: hepg2, 24 h
[18] = Permeability of the compound incubated for 4 hrs by PAMPA-BBB assay based HPLC analysis
[19] = test system: PC-12; test: Neuroprotective activity against amyloid beta (25 to 35)-induced rat PC12 cells assessed as decrease in NF-kappaB phosphorylation level at 7.5 to 30 uM preincubated for 30 mins followed by amyloid beta (25 to 35) addition and measured after 24 hrs by western blot assay; format: functional, cell-based; details: dose 7.5-30 µM, time 24.5 hrs
[20] = MRT (0 to t) in Sprague-Dawley rat at 10 mg/kg,iv measured at 0.083 to 24 hrs post administration by LC-MS/MS analysis; format: ADME, organism-based; details: in vivo, time 0.083-24 hrs
[21] = Oral bioavailability in Sprague-Dawley rat at 60 mg/kg measured after 0.25 to 24 hrs post administration by LC-MS/MS analysis; format: ADME, organism-based; details: in vivo, time 0.25-24 hrs
[22] = test system: Mus musculus; test: Antialzheimer activity against amyloid beta (25 to 35)-induced brain injury ICR mouse model assessed as increase in NeuN expression level in hippocampal CA3 region at 50 mg/kg,po administrated for 21 days by immunohistochemistry analysis; format: functional, organism-based; details: time 21.0 day
[23] = test system: Mus musculus; test: Antialzheimer activity against amyloid beta (25 to 35)-induced cognitive deficit ICR mouse model assessed as increase in preferential index at 25 mg/kg,po observed after 24 hrs of administration by novel object recognition test; format: functional, organism-based
[24] = test system: Mus musculus; test: Antialzheimer activity against amyloid beta (25 to 35)-induced spatial memory deficit ICR mouse model assessed as increase in exploration time spent at 50 mg/kg,po observed at 16 to 20 days of administration by morris water maze test; format: functional, organism-based; details: time 16-20 day
[25] = test system: Mus musculus; test: Antialzheimer activity against amyloid beta (25 to 35)-induced brain injury ICR mouse model assessed as attenuation of pathological change in hippocampal CA3 region at 12.5 to 50 mg/kg,po administrated for 21 days by hematoxylin and eosin staining based microscopic analysis; format: functional, organism-based; details: dose 12.5-50 mg/kg, time 21.0 day
[26] = test system: Mus musculus; test: Antialzheimer activity against amyloid beta (25 to 35)-induced brain injury ICR mouse model assessed as attenuation of pathological change in hippocampal CAl region at 12.5 to 50 mg/kg,po administrated for 21 days by hematoxylin and eosin staining based microscopic analysis; format: functional, organism-based; details: dose 12.5-50 mg/kg, time 21.0 day
[27] = C0 in Sprague-Dawley rat at 10 mg/kg,iv measured at 0.083 to 24 hrs post administration by LC-MS/MS analysis; format: ADME, organism-based; details: in vivo, time 0.083-24 hrs
[28] = Clearance in Sprague-Dawley rat at 10 mg/kg,iv measured at 0.083 to 24 hrs post administration by LC-MS/MS analysis; format: ADME, organism-based; details: in vivo, time 0.083-24 hrs
[29] = Half life in Sprague-Dawley rat at 60 mg/kg,po measured at 0.25 to 24 hrs post administration by LC-MS/MS analysis; format: ADME, organism-based; details: in vivo, time 0.25-24 hrs
[30] = test system: Mus musculus; test: Antialzheimer activity against amyloid beta (25 to 35)-induced spatial memory deficit ICR mouse model assessed as increase in distance travelled in target quadrant at 50 mg/kg,po observed at 16 to 20 days of administration by morris water maze test; format: functional, organism-based; details: time 16-20 day
[31] = test system: PC-12; test: Cytotoxicity against rat PC12 cells assessed as effect on survival at < 60 uM incubated for 24 hrs by MTT assay; format: toxicity, cell-based; details: pc-12, 24 h

In the case of `CC1(C)CCC[C@](C)([C@H]2CC[C@]3(C)[C@@H]2[C@H](O)C[C@@H]2[C@@]4(C)CC[C@H](OC(=O)NCc5ccccc5)C(C)(C)[C@@H]4CC[C@]23C)O1`, the Activity [1] is reported as “Active”, the Activity [2] is reported as “Active” and the viability at 24 h, 120 µM [3] is reported as > 50%. For the same compound, the Activity [4] was 14.1%, the Activity [5] was “Active” and the viability at 24 h, 120 µM [6] was > 50%. For the same compound, the Activity [7] was 14.89%, the Tmax [8] was 79.8 min and the Activity [9] was “Toxic”. The AUC(0-inf) [10] was 326 ng·h/mL, the Activity [11] was “inactive” and the Activity [12] was “inactive”. For the same compound, the Activity [13] was “Active”, the Activity [14] was “Active” and the Activity [15] was “Active”. For the same compound, the Activity [16] was “Active”, the Activity [17] was “Non-Toxic” and the Papp at 4 h [18] was 26.1 ×10⁻⁶ cm/s. The Activity [19] was “Active”, the MRT last [20] was 25.6 min and the bioavailability [21] was 0.2%. For the same compound, the Activity [22] was “Active”, the Activity [23] was “Active” and the Activity [24] was “Active”. For the same compound, the Activity [25] was “Active”, the Activity [26] was “Active” and the C0 [27] was 237 µg/mL. For the same compound, the clearance [28] was 4.29 mL/min/kg, the half-life [29] was 49 min and the Activity [30] was “Active”. For the same compound, the Activity [31] was “Non-Toxic”.
